Data: US8778385B1, “Medicated animal food composition” (I Care for Dogs Corp., priority 2005, dated 2014)
“Also recorded” adds a separate entry of the source.

Assays:
canines = settings: cited from earlier work
tear staining = experiment: controlling tear staining in Maltese dogs; assay type: in vivo
Source text: In preparation of the medicated animal food composition, all of the ingredients (except for the tylosin) are initially processed into a powder and then mixed together with the tylosin, as a tartrate. Tylosin is available from the Omaha Vaccine Co. under the brand name TYLAN and is a veterinary antibiotic that is FDA-approved for fowl (chickens/turkeys) and swine (pigs). Tylosin is used primarily to treat respiratory disease caused by Mycoplasma gallisepticum.

## CN(C)[C@@H]1C(O)=C(C(N)=O)C(=O)[C@@]2(O)C(O)=C3C(=O)c4c(O)cccc4[C@@](C)(O)[C@H]3C[C@@H]12 [Tetracycline]
canines
  side effects when used to treat excessive tearing: upset stomach; also recorded: staining of the teeth

## CC[C@H]1OC(=O)C[C@@H](O)[C@H](C)[C@@H](O[C@@H]2O[C@H](C)[C@@H](O[C@H]3C[C@@](C)(O)[C@@H](O)[C@H](C)O3)[C@H](N(C)C)[C@H]2O)[C@@H](CC=O)C[C@@H](C)C(=O)/C=C/C(C)=C/[C@@H]1CO[C@@H]1O[C@H](C)[C@@H](O)[C@@H](OC)[C@H]1OC [Tylosin]
Tear staining
  effect in controlling tear staining: some beneficial effect
